Reference: publication PMC12439166, “Dietary flavonoids form supramolecular assemblies, alter biochemistry, and enhance cell resilience” (Frontiers in Nutrition, 2025)

Biological target: T1, Tyrosine-protein phosphatase non-receptor type 1 (PTP1B) (Homo sapiens, UniProt P18031)
T1 sequence (P18031 1-435): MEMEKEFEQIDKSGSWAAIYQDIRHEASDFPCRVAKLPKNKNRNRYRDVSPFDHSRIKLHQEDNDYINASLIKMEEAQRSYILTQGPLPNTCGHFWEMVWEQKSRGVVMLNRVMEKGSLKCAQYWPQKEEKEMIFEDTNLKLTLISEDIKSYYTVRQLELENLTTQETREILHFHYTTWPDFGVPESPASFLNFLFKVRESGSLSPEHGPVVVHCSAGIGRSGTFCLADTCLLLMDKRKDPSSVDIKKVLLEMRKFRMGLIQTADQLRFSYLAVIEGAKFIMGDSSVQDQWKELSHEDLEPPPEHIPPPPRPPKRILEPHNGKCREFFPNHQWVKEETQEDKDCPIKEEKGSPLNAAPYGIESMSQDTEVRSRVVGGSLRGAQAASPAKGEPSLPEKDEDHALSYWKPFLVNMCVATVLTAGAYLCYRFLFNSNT
Assay: Enzyme activity assay (SAMDI-MS), PTP1B
Type: biochemical
Settings: 10 concentrations, 5 nM to 100 μM, compounds incubated with enzyme 30 min, result in words
Protocol: Enzyme screens were performed by SAMDI Tech (contract research organization); enzyme assays were performed in a 20 μL volume in 384-well low-volume polypropylene microtiter plates (Greiner Bio-One) at room temperature. The enzymes [Arginase 1 (ARG1), Lysine demethylase 4C (KDM4C), MAP/microtubule affinity-regulating kinase 4 (MARK4), Histone-Lysine N-methyltransferase (NSD2), Tyrosine-protein phosphatase non-receptor type 1 (PTP1B), and Sirtuin-3 (SIRT3)] were incubated with compounds for 30 min prior to initiation of the reaction by the addition of substrate and cofactors (if required). Reactions were quenched by the addition of 0.5% formic acid (final) with subsequent neutralization using 1% sodium bicarbonate (final). For SAMDI MS analysis, 2 μL of each reaction was transferred using a 384-channel automated liquid handler to SAMDI biochip arrays functionalized with a neutravidin-presenting self-assembled monolayer. The preparation of SAMDI biochip arrays has been previously described ([41], [42], [49]). The SAMDI arrays were incubated for 1 h in a humidified chamber to allow specific immobilization of the biotinylated substrates and products; they were then purified by washing with ultrafiltered water (50 μL/spot) and dried with compressed air. A matrix comprising α-Cyano-4-hydroxycinnamic acid in 80% acetonitrile: 20% aqueous ammonium citrate (10 mg/mL final) was applied in an automated format by dispensing 50 nL to each spot in the array. SAMDI MS was performed using reflector positive mode on an AB Sciex TOF-TOF 5800 System (AB Sciex, Framingham, MA) with 400 shots/spot analyzed in a random raster sampling. For data analysis, the area under the curves (AUCs) for the product peak and substrate peak were calculated using the TOF/TOF Series Explorer (AB Sciex), and the amount of product formed was calculated using the equation AUC product / (AUC product + AUC Substrate). Negative controls were pre-quenched with 0.5% formic acid (final). Lysozyme assay was performed using the manufacturer’s instructions (Biovision Lysozyme inhibitor screening kit K237). Flavonoids were acquired from Sigma-Aldrich and Seleckchem.
IC50 values of enzyme inhibition. Inhibition of the enzymes was measured at 10 concentration values in the range of 5 nM to 100 μM for each compound and enzyme, with two technical replicates; the percent inhibition values were determined by SAMDI software. Sigmoidal curves were fitted to the percent inhibition vs log10 (concentration) series, and IC50 values were determined at the crossing point of 50 % inhibition. […] First, for each IC50 value per compound and enzyme, a Z-score was calculated based on the log10 (IC50) value and that of the compounds that produced a successful readout for enzyme i , according to Equation 1: […]

Structure (SMILES)	inhibition of enzyme activity, PTP1B	inhibition of enzyme activity, PTP1B (listed as Quercetin)	inhibition of enzyme activity, PTP1B (listed as Quercitin)
O=c1c(O[C@@H]2O[C@H](CO)[C@@H](O)[C@H](O)[C@H]2O)c(-c2ccc(O)c(O)c2)oc2cc(O)cc(O)c12 [isoquercitrin]	not	–	–
C[C@@H]1O[C@@H](Oc2c(-c3ccc(O)c(O)c3)oc3cc(O)cc(O)c3c2=O)[C@H](O)[C@H](O)[C@H]1O [quercitrin]	did not affect	–	–
O=c1c(O)c(-c2ccc(O)c(O)c2)oc2cc(O)cc(O)c12 [quercetin]	–	inhibited	concentration-dependent inhibition
